Measured values as given in article PMC6028453, “BrlR from Pseudomonas aeruginosa is a receptor for both cyclic di-GMP and pyocyanin” (Nature Communications, 2018).

What was measured:
[1] = target: T1, BrlR mutant Y40A (Pseudomonas aeruginosa, UniProt Q9HUT5, Y40A); assay: FP binding assay, BrlR Y40A
T1 construct: His6-SUMO (N, cleaved yes); made in house; host or cells: E. coli BL21 DE3
Method: (§1) F-c-di-GMP and F-c-di-AMP both contain a fluorophore at one of the 2′-ribose hydroxyls of c-di-GMP and c-di-AMP, respectively (Fig. 2f). To measure the binding of c-di-GMP and c-di-AMP to BrlR variants, 1 nM F-c-di-GMP or F-c-di-AMP was incubated with increasing amounts of indicated BrlR WT, BrlR mutation, or BrlR-C in reaction buffer (25 mM HEPES, 100 mM NaCl, pH 7.5) at 25 °C for 20 min. 1 nM fluorescein was incubated with BrlR WT in the same reaction buffer at 25 °C. FP measurements were conducted on a Synergy 4 Microplate Reader (BioTek) at 25 °C. All experiments were performed in triplicate. The curves were fitted to deduce binding affinities by GraphPad Prism 5.
(§2) BrlR–c-di-GMPs interactions in two separate c-di-GMP binding sites
(§3) In the first binding site, c-di-GMP is half accommodated by the antiparallel β-sheet and two residues (M1 and D35). In detail, the backbone amide protons of the first M1 residue form a hydrogen bond (H-bond) with the phosphate oxygen atom of c-di-GMP, and the side chain of R31 forms two H-bonds with the Gua1 base. The residue D35 also forms an H-bond with the Gua1 base. The aromatic ring of Y40 interacts with the Gua1 base through a hydrophobic π-π interaction. In addition, the hydroxyl group of the Y270 side chain from another subunit interacts with the phosphate 2 of c-di-GMP via an H-bond (Fig. 2d). […]

[2] = target: T2, BrlR mutant R67A (Pseudomonas aeruginosa, UniProt Q9HUT5, R67A); assay: FP binding assay, BrlR R67A
T2 construct: His6-SUMO (N, cleaved yes); made in house; host or cells: E. coli BL21 DE3
T2 sequence (Q9HUT5 whole entry R67A): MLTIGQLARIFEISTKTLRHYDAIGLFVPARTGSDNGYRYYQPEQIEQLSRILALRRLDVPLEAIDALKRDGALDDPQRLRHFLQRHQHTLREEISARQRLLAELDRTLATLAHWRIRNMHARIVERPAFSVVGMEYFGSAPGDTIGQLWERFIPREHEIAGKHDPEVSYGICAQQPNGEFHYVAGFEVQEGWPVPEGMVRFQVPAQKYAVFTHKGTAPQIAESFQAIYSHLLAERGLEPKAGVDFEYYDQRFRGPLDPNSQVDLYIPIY
Method: as §1, §2, §3

[3] = target: T3, BrlR-DNA binding (PbrlR) (Pseudomonas aeruginosa, UniProt Q9HUT5); assay: EMSA, wild-type BrlR with PbrlR DNA; type: biochemical
T3 construct: His6-SUMO (N, cleaved yes); made in house; host or cells: E. coli BL21 DE3
T3 sequence (Q9HUT5 whole entry): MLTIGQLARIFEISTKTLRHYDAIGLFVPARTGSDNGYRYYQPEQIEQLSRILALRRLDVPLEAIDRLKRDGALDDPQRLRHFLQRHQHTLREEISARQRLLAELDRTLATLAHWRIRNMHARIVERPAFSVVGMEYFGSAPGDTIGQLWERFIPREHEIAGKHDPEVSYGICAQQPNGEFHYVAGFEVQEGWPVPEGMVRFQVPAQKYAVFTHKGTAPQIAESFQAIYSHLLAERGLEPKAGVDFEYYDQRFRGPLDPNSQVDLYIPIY
Method: (§4) A 6-carboxy-fluorescein (FAM)-labeled 36-bp brlR promoter DNA (PbrlR) or 80-bp mexA/mexE promoter DNA (PmexA/PmexE) probes (~0.375 pmol), BrlR protein and varying amounts of inducers were incubated in binding buffer (10 mM Tris HCl [pH 7.4], 50 mM KCl, 1 mM DTT, […] and 5 ng/mL poly [dI-dC]) for 60 min at 25 °C. Finally, glycerol was added to a concentration of 6.5%. The samples were subjected to a 5% polyacrylamide gel electrophoresis and run in 0.5 × Tris-borate-EDTA buffer at 80 V for 1 h at room temperature. Imaging and data analyses were performed using a Typhoon Scanner (GE Healthcare) and Imagequant software. The probes used are listed in Supplementary Table 1.

[4] = target: T4, BrlR R31A DNA binding (Pseudomonas aeruginosa, UniProt Q9HUT5, R31A); assay: EMSA, BrlR R31A; type: biochemical
T4 construct: His6-SUMO (N, cleaved yes); made in house; host or cells: E. coli BL21 DE3
T4 sequence (Q9HUT5 whole entry R31A): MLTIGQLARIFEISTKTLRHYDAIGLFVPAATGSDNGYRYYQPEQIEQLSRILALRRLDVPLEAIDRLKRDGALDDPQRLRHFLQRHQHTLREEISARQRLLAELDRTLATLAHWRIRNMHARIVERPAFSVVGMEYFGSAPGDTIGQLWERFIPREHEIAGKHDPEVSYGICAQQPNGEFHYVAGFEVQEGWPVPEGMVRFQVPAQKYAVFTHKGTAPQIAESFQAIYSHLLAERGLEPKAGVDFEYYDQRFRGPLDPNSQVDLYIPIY
Method: as §4

[5] = target: T5, BrlR Y40A DNA binding (Pseudomonas aeruginosa, UniProt Q9HUT5, Y40A); assay: EMSA, BrlR Y40A; type: biochemical
T5 construct: His6-SUMO (N, cleaved yes); made in house; host or cells: E. coli BL21 DE3
T5 sequence (Q9HUT5 whole entry Y40A): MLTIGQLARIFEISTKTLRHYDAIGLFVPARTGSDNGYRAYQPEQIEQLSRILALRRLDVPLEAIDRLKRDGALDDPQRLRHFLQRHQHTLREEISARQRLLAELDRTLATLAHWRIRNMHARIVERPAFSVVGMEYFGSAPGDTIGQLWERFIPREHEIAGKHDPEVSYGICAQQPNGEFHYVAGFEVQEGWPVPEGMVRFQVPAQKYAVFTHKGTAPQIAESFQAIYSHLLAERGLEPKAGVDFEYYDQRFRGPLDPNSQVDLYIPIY
Method: as §4

[6] = target: T6, BrlR Y270A DNA binding (Pseudomonas aeruginosa, UniProt Q9HUT5, Y270A); assay: EMSA, BrlR Y270A; type: biochemical
T6 construct: His6-SUMO (N, cleaved yes); made in house; host or cells: E. coli BL21 DE3
T6 sequence (Q9HUT5 whole entry Y270A): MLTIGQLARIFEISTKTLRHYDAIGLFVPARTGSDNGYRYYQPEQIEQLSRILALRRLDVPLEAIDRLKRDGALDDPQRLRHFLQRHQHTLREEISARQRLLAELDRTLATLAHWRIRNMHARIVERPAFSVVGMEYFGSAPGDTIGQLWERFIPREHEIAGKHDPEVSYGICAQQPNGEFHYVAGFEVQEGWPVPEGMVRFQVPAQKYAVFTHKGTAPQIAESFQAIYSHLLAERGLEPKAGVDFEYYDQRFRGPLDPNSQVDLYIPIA
Method: as §4

[7] = system: brlR transcription; assay: qRT-PCR of brlR transcript; type: cell-based, P. aeruginosa PAO1; details: elevated c-di-GMP by diguanylate cyclase PA4843 in PAO1
Method: PAO1 WT strains were grown under different conditions. For c-di-GMP effects, overexpression of PA4843 in PAO1 (PAO1/pHERD20T-PA4843) relative to WT cells (PAO1/ pHERD20T) was determined. When P. aeruginosa strains entered mid-log phase, arabinose was added to induce gene expression. To test pyocyanin’s effect, a P. aeruginosa PAO1 WT strain cells with high pyocyanin production was determined relative to a ΔphzA1-G1/phzA2-G2 strain not producing phenazine and a ΔphzMSH strain not producing pyocyanin.
Total RNA was extracted using a MiniBEST Universal RNA Extraction Kit (TaKaRa) and cDNA synthesis was performed using a PrimeScript RT reagent Kit (TaKaRa). Primers for RT-PCR listed in Supplementary Table 1 were designed using the program PrimerExpress (Applied Biosystems). The RT-PCR reactions were performed on a CFX96 Real-Time PCR Detection System (Bio-Rad) using SYBR Premix Ex Taq™ (TaKaRa). Expression of the target genes was normalized to the expression of 16 S RNA. The relative transcript abundance was calculated according to the 2^−ΔΔCt method. Five biological replicates were performed per sample. The data were analyzed with a one-tailed t-test (***P ≤ 0.001).

T1 sequence (Q9HUT5 whole entry Y40A): as the sequence (Q9HUT5 whole entry Y40A) above

`Nc1nc2c(ncn2[C@@H]2O[C@@H]3COP(=O)(O)O[C@H]4[C@@H](O)[C@H](n5cnc6c(=O)[nH]c(N)nc65)O[C@@H]4COP(=O)(O)O[C@H]3[C@H]2O)c(=O)[nH]1` [c-di-GMP, cyclic diguanylate monophosphate] was tested, and the Kd [1] was 34.2 ± 2.6 µM, the Kd [2] was 16.4 ± 1 µM and the “effect of c-di-GMP and pyocyanin together on BrlR-DNA binding” value ([3]; PbrlR, c-di-GMP, pyocyanin, and both) was “cooperatively enhance”. The “BrlR-DNA complex in the presence vs absence of c-di-GMP” value ([3]; wild-type BrlR, band densitometry) was 5.5 fold, the “effect on BrlR-PbrlR DNA binding (in words)” value ([3]; wild-type BrlR, increasing concentrations of compound) was “significantly promoted” and the “DNA bound in the presence vs absence of c-di-GMP” value [4] was ~ 1.3 fold. For the same molecule, the “DNA bound in the presence vs absence of c-di-GMP” value [5] was ~ 1.1 fold, the “DNA bound in the presence vs absence of c-di-GMP” value [6] was ~ 3.4 fold and the “transcriptional level of brlR, pHERD20T-PA4843 strain vs pHERD20T-empty strain” value [7] was 4.5 ± 1.3 fold.
